Measurements: patent US4818761A, “2-(4-pyridylaminomethyl)-benzimidazole derivatives having antiviral activity” (priority 1986, dated 1989)
Converted amounts (≈) assume the structure as drawn.

Experiments:
[1] = in vitro; conditions: monkey, llc-mk2 cells
[2] = test system: enterovirus type 70 (EV70); assay: Inhibition of EV70 plaque formation in LLC-MK2 cells; assay type: cell-based; conditions: for CI EV70 (C)/(A): CI = CD50 (LLC-MK2)/IC50 (plaque); for IC50: Enterovirus D, plaque reduction, LLC-MK2 cells, 33° C.
[3] = test system: rhinovirus type 14 (HRV14); assay: Inhibition of HRV14 plaque formation in HeLa cells; assay type: cell-based; conditions: for CI HRV14 (D)/(B): CI = CD50 (HeLa)/IC50 (plaque); for IC50: Enterovirus, HRV14, plaque reduction, HeLa cells, 33° C.
[4] = test system: coxsackievirus type B4 (CB4); assay: Inhibition of CB4 plaque formation in LLC-MK2 cells; assay type: cell-based; conditions: for CI CB4 (C)/(A): CI = CD50 (LLC-MK2)/IC50 (plaque); for IC50: Coxsackievirus, plaque reduction, LLC-MK2 cells, 37° C.
[5] = test system: poliovirus type 2 (Polio2); assay: microbe, parasite or virus in culture; assay type: cell-based; conditions: for IC50: Enterovirus C, LLC-MK2, read-out: IC50 Polio2; for CI Polio2 (C)/(A): CI = CD50 (LLC-MK2)/IC50 (plaque)
[6] = in vitro; conditions: human, hela cells
[7] = test system: coxsackievirus type B4 (CB4); assay: Inhibition of CB4 cytopathogenic effect (CPE) in LLC-MK2 cells; assay type: cell-based; conditions: for IC50: Coxsackievirus, * Virus CPE inhibition assay, LLC-MK2 cells, 37° C.; for CI CB4 (C)/(A): CI = CD50 (LLC-MK2)/IC50 (virus CPE)
[8] = test system: rhinovirus type 14 (HRV14); assay: Inhibition of HRV14 cytopathogenic effect (CPE) in HeLa cells; assay type: cell-based; conditions: Enterovirus, HRV14; * Virus CPE inhibition assay, HeLa cells, 33° C.
[9] = test system: enterovirus type 70 (EV70); assay: Inhibition of EV70 cytopathogenic effect (CPE) in LLC-MK2 cells; assay type: cell-based; conditions: for IC50: Enterovirus D, * Virus CPE inhibition assay, LLC-MK2 cells, 33° C.

Row | SMILES | CC50 [1] [µg/mL] | CI EV70 (C)/(A) [2] | IC50 [2] [µg/mL] | CI HRV14 (D)/(B) [3] | IC50 [3] [µg/mL] | CI CB4 (C)/(A) [4] | IC50 [4] [µg/mL] | IC50 [5] [µg/mL] | CC50 [6] [µg/mL] | IC50 [7] [µg/mL] | IC50 [8] [µg/mL] | IC50 [9] [µg/mL] | CI Polio2 (C)/(A) [5] | CI CB4 (C)/(A) [7] | CI EV70 (C)/(A) ([9]; CI = CD50 (LLC-MK2)/IC50 (virus CPE))
1 | Brc1ccc2[nH]c(CNc3ccncc3)nc2c1 [I, 2-(4-pyridylaminomethyl)-5-(6)-bromobenzimidazole] | 312 (≈ 1030 µM) | 101 | 3.1 (≈ 10.2 µM) | 3 | 5.8 (≈ 19.1 µM) | 17 | 18 (≈ 59.4 µM) | > 25 | 17.8 (≈ 58.7 µM) | – | – | – | – | – | –
2 | Fc1ccc2[nH]c(CNc3ccncc3)nc2c1 [II] | 177 (≈ 730 µM) | 126 | 1.4 (≈ 5.78 µM) | 4 | 14.5 (≈ 59.9 µM) | 29 | 6 (≈ 24.8 µM) | > 25 | 56.2 (≈ 232 µM) | – | – | – | – | – | –
3 | CC(C)(C)C(=O)Cn1c(CNc2ccncc2)nc2ccccc21 [LIII] | > 2000 | – | – | – | – | – | – | – | – | > 100 | > 100 | > 100 | – | – | –
4 | Clc1ccc(-n2c(CNc3ccncc3)nc3ccccc32)cc1 [LIX] | > 1000 | > 833 | 1.2 (≈ 3.58 µM) | > 4 | 25 (≈ 74.7 µM) | > 1,176 | 0.85 (≈ 2.54 µM) | 9.6 (≈ 28.7 µM) | > 100 | – | – | – | > 111 | – | –
5 | OCCCn1c(CNc2ccncc2)nc2ccccc21 [LI] | > 1000 | – | – | – | > 100 | – | – | – | – | 56.2 (≈ 199 µM) | – | > 100 | – | 18 | –
6 | CC(=O)OCCOCn1c(CNc2ccncc2)nc2ccccc21 [LV] | > 100 | > 63 | 1.6 (≈ 4.7 µM) | > 6 | 15.6 (≈ 45.8 µM) | 8 | 11.9 (≈ 35 µM) | 17.6 (≈ 51.7 µM) | > 100 | – | – | – | > 6 | – | –
7 | Ic1ccc(-n2c(CNc3ccncc3)nc3ccccc32)cc1 [LXI] | > 100 | – | – | – | – | – | – | – | – | > 100 | – | > 100 | – | – | –
8 | COc1ccc(-n2c(CNc3ccncc3)nc3ccccc32)cc1 [LXVIII] | > 100 | – | – | – | – | – | – | – | – | 5.6 (≈ 16.9 µM) | – | > 100 | – | > 18 | –
9 | Cc1cc(C)c(-n2c(CNc3ccncc3)nc3ccccc32)c(C)c1 [LXXII] | > 100 | – | – | – | – | – | – | – | – | > 100 | – | > 100 | – | – | –
10 | c1ccc(Oc2ccc3[nH]c(CNc4ccncc4)nc3c2)cc1 [LXXIV] | > 100 | – | – | > 6 | 17.8 (≈ 56.3 µM) | – | – | – | > 100 | > 100 | – | > 100 | – | – | –
11 | Cc1ccc(-n2c(CNc3ccncc3)nc3ccccc32)cc1F [LXXI] | > 100 | > 25 | 4 (≈ 12 µM) | > 2 | 49.7 (≈ 150 µM) | > 31 | 3.2 (≈ 9.63 µM) | > 50 | > 100 | – | – | – | – | – | –
12 | Cc1ccc(-n2c(CNc3ccncc3)nc3ccccc32)cc1C [LXX] | > 100 | > 15 | 6.5 (≈ 19.8 µM) | > 2 | 40.7 (≈ 124 µM) | > 6 | 16 (≈ 48.7 µM) | > 50 | > 100 | – | – | – | – | – | –
13 | Brc1ccc(-n2c(CNc3ccncc3)nc3ccccc32)cc1 [LX] | > 100 | > 53 | 1.9 (≈ 5.01 µM) | > 3 | 39.9 (≈ 105 µM) | > 100 | 1 (≈ 2.64 µM) | > 50 | > 100 | – | – | – | – | – | –
14 | CC(C)c1ccc2[nH]c(CNc3ccncc3)nc2c1 [VI] | > 1000 | > 476 | 2.1 (≈ 7.88 µM) | 3 | 16.5 (≈ 61.9 µM) | > 15 | 69 (≈ 259 µM) | > 100 | 56.2 (≈ 211 µM) | – | – | – | – | – | –
15 | CCn1c(CNc2ccncc2)nc2cc(C)ccc21 [XL, 1-ethyl-2-(4-pyridylaminomethyl)-5-methyl benzimidazole] | > 100 | – | – | – | – | – | – | – | – | 56.2 (≈ 211 µM) | – | > 100 | – | > 2 | –
16 | CC(C)Cn1c(CNc2ccncc2)nc2ccccc21 [XLIX] | > 2000 | – | > 100 | – | – | – | – | – | – | 2.1 (≈ 7.49 µM) | > 100 | – | – | > 952 | –
17 | CCc1ccc2c(c1)nc(CNc1ccncc1)n2CC [XLI] | > 100 | – | – | – | – | – | – | – | – | > 100 | – | > 100 | – | – | –
18 | Clc1ccc2nc(CNc3ccncc3)n(-c3ccccc3)c2c1 [XLVII] | > 300 | > 130 | 2.3 (≈ 6.87 µM) | 4 | 4.4 (≈ 13.1 µM) | > 250 | 1.2 (≈ 3.58 µM) | > 100 | 17.8 (≈ 53.2 µM) | – | – | – | – | – | –
19 | Clc1ccc2c(c1)nc(CNc1ccncc1)n2-c1ccccc1 [XLVI] | > 100 | – | – | – | – | – | – | – | – | 1.8 (≈ 5.38 µM) | – | 13.2 (≈ 39.4 µM) | – | > 56 | > 8
20 | c1ccc2c(c1)nc(CNc1ccncc1)n2C1CCCC1 [XVII] | 1410 (≈ 4840 µM) | – | – | – | > 50 | – | – | – | – | 5.6 (≈ 19.2 µM) | – | > 100 | – | > 253 | –
21 | c1ccc(Cn2c(CNc3ccncc3)nc3ccccc32)cc1 [XXIV, 1-benzyl-2-(4-pyridylaminomethyl)benzimidazole] | > 2000 | – | – | – | > 50 | – | – | – | – | 56.2 (≈ 179 µM) | – | > 100 | – | > 36 | –
22 | Cc1cc2nc(CNc3ccncc3)[nH]c2cc1Cl [XXIX] | 177 (≈ 648 µM) | 118 | 1.5 (≈ 5.5 µM) | 15 | 3.8 (≈ 13.9 µM) | 15 | 11.5 (≈ 42.2 µM) | 52 (≈ 191 µM) | 56.2 (≈ 206 µM) | – | – | – | 3 | – | –
